Measured values from patent US9309240B2, “Pyrazolopyridine compounds, compositions and methods of use” (F. HOFFMANN-LA ROCHE AG, priority 2010, dated 2016).
Where a name gives a salt, the structure may show the parent alone.

Target: T1, TYK2 kinase domain (Homo sapiens, UniProt P29597)
T1 construct: The activity of the isolated JAK1, JAK2 or TYK2 kinase domain was measured
T1 sequence (P29597 897-1176 limits assumed): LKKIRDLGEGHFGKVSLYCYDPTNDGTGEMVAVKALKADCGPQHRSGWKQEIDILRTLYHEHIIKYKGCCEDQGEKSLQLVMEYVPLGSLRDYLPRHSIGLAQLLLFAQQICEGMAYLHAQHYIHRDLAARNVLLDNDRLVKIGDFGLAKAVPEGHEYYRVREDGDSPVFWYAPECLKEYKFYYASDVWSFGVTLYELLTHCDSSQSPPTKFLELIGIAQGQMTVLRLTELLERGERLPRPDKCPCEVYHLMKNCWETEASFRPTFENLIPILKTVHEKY
Experiment: JAK1, JAK2 and TYK2 Inhibition Assay Protocol (Example A): TYK2 kinase domain, Caliper LabChip peptide phosphorylation
Format: biochemical
Conditions: isolated TYK2 kinase domain, 1 nM enzyme, 25 uM ATP, Morrison tight binding model
Method: The activity of the isolated JAK1, JAK2 or TYK2 kinase domain was measured by monitoring phosphorylation of a peptide derived from JAK3 (Val-Ala-Leu-Val-Asp-Gly-Tyr-Phe-Arg-Leu-Thr-Thr) fluorescently labeled on the N-terminus with 5-carboxyfluorescein using the Caliper LabChip technology (Caliper Life Sciences, Hopkinton, Mass.). To determine the inhibition constants (Ki) of Examples 1-165, compounds were diluted serially in DMSO and added to 50 μL kinase reactions containing 1.5 nM JAK1, 0.2 nM purified JAK2 or 1 nM purified TYK2 enzyme, 100 mM Hepes pH7.2, 0.015% Brij-35, 1.5 uM peptide substrate, 25 uM ATP, 10 mM MgCl2, 4 mM DTT at a final DMSO concentration of 2%. Reactions were incubated at 22° C. in 384-well polypropylene microtiter plates for 30 minutes and then stopped by addition of 25 μL of an EDTA containing solution (100 mM Hepes pH 7.2, 0.015% Brij-35, 150 mM EDTA), resulting in a final EDTA concentration of 50 mM. After termination of the kinase reaction, the proportion of phosphorylated product was determined as a fraction of total peptide substrate using the Caliper LabChip 3000 according to the manufacturer's specifications. Ki values were then determined using the Morrison tight binding model. Morrison, J. F., Biochim. Biophys. Acta. 185:269-296 (1969); William, J. W. and Morrison, J. F., Meth. Enzymol., 63:437-467 (1979).

| Ki [nM] | SMILES |
| --- | --- |
| 1.1 | N#Cc1cnc(Nc2cc(N)ncn2)c2cn(-c3c(Cl)cccc3Cl)nc12 [Example 40, 4-(6-Aminopyrimidin-4-ylamino)-2-(2,6-dichlorophenyl)-2H-pyrazolo[4,3-c]pyridine-7-carbonitrile] |
| 2.2 | Nc1cc(Nc2nccc3nn(-c4c(F)ccc(F)c4Cl)cc23)ncn1 [Example 81, N4-(2-(2-chloro-3,6-difluorophenyl)-2H-pyrazolo[4,3-c]pyridin-4-yl)pyrimidine-4,6-diamine] |
| 1.6 | O=C(Nc1nccc2nn(-c3c(F)cccc3Cl)cc12)C1CC1 [Example 15, N-(2-(2-chloro-6-fluorophenyl)-2H-pyrazolo[4,3-c]pyridin-4-yl)cyclopropanecarboxamide] |
| 3.3 | CNC(=O)Nc1nccc2nn(-c3c(Cl)cccc3Cl)cc12 [Example 7, 1-[2-(2,6-Dichlorophenyl)-2H-pyrazolo[4,3-c]pyridine-4-yl]-3-methylurea] |
| 0.4 | OCc1cc(Nc2ncc(Br)c3nn(-c4c(Cl)cccc4Cl)cc23)ncn1 [Example 37, {6-[7-Bromo-2-(2,6-dichloro-phenyl)-2H-pyrazolo[4,3-c]pyridin-4-ylamino]-pyrimidin-4-yl}-methanol] |
| 1.8 | Cc1cc(Nc2cc(Cl)c(-n3cc4c(Nc5cc(C)ncn5)nccc4n3)c(C#N)c2)ncn1 [Example 158, 3-chloro-5-(6-methylpyrimidin-4-ylamino)-2-(4-(6-methylpyrimidin-4-ylamino)-2H-pyrazolo[4,3-c]pyridin-2-yl)benzonitrile] |
| 5.2 | COC(=O)Nc1nccc2nn(-c3c(Cl)cccc3Cl)cc12 [Example 6, [2-(2,6-Dichlorophenyl)-2H-pyrazolo[4,3-c]pyridine-4-yl]carbamic acid methyl ester] |
| 2 | Cc1cc(Nc2nccc3nn(-c4c(Cl)cccc4Cl)cc23)nc(C)n1 [Example 2, [2-(2,6-Dichlorophenyl)-2H-pyrazolo[4,3-c]pyridine-4-yl]-(2,6-dimethylpyrimidin-4-yl)amine] |
| 5.6 | Cc1cc(Nc2ncc(Cl)c3nn(-c4c(Cl)cc(C#N)cc4Cl)cc23)ncn1 [Example 30, 3,5-Dichloro-4-[7-chloro-4-(6-methylpyrimidin-4-ylamino)pyrazolo[4,3-c]pyridin-2-yl]benzonitrile] |
| 3 | N#Cc1ccc(Nc2nccc3nn(-c4c(Cl)cccc4Cl)cc23)nc1 [Example 3, 6-[2-(2,6-Dichlorophenyl)-2H-pyrazolo[4,3-c]pyridin-4-ylamino]nicotinonitrile] |
| 0.4 | N#Cc1cc(Cl)c(-n2cc3c(Nc4cc(N)ncn4)ncc(F)c3n2)c(Cl)c1 [Example 34, 4-[4-(6-Amino-pyrimidin-4-ylamino)-7-fluoro-pyrazolo[4,3-c]pyridin-2-yl]-3,5-dichlorobenzonitrile.HCl] |
| 2 | N#Cc1cc(Cl)c(-n2cc3c(NC(=O)C4CC4)nccc3n2)c(Cl)c1 [Example 69, N-(2-(2,6-dichloro-4-cyanophenyl)-2H-pyrazolo[4,3-c]pyridin-4-yl)cyclopropane-carboxamide] |
| 1.3 | O=C(Nc1nccc2nn(-c3c(Cl)cccc3Cl)cc12)C1CC1 [Example 1, N-(2-(2,6-Dichlorophenyl)-2H-pyrazolo[4,3-c]pyridin-4-yl)cyclopropanecarboxamide] |
| 1.9 | OCCN1CCN(c2cc(Nc3nccc4nn(-c5c(Cl)cccc5Cl)cc34)ncn2)CC1 [Example 49, 2-(4-(6-((2-(2,6-dichlorophenyl)-2H-pyrazolo[4,3-c]pyridin-4-yl)amino)-pyrimidin-4-yl)piperazin-1-yl)ethan-1-ol] |
| 1 | Cc1cc(Nc2nccc3nn(-c4c(Cl)cccc4Cl)cc23)ncc1C#N [Example 53, 6-[2-(2,6-Dichlorophenyl)-2H-pyrazolo[4,3-c]pyridin-4-ylamino]-4-methyl-nicotinonitrile] |
| 105 | N#Cc1cc(N)cc(Cl)c1-n1cc2c(Nc3cc(N)ncn3)ncc(F)c2n1 [Example 101, 5-Amino-2-[4-(6-aminopyrimidin-4-ylamino)-7-fluoropyrazolo[4,3-c]pyridin-2-yl]-3-chlorobenzonitrile formate salt] |
| 0.8 | CC(O)c1cc(Nc2ncc(F)c3nn(-c4c(Cl)cccc4C#N)cc23)ncn1 (stereo not shown) [Example 96, 3-Chloro-2-{7-fluoro-4-[6-(1-hydroxyethyl)-pyrimidin-4-ylamino]-pyrazolo[4,3-c]pyridin-2-yl}-benzonitrile] |
| 14.9 | CS(=O)(=O)c1cc(Cl)c(-n2cc3c(NC(=O)C4CC4)nccc3n2)c(Cl)c1 [Example 67, N-(2-(2,6-dichloro-4-methane-sulphonyl-phenyl)-2H-pyrazolo[4,3-c]pyridine-4-yl)cyclopropane-carboxamide] |
| 0.1 | N#Cc1cccc(Cl)c1-n1cc2c(Nc3cc(N)ncn3)ncc(Cl)c2n1 [Example 151, 2-(4-(6-aminopyrimidin-4-ylamino)-7-chloro-2H-pyrazolo[4,3-c]pyridin-2-yl)-3-chlorobenzonitrile] |
